Test results as given in ChEMBL document CHEMBL4041532, “Zinc-Metalloproteinase Inhibitors: Evaluation of the Complex Role Played by the Zinc-Binding Group on Potency and Selectivity” (J Med Chem, 2017).
The source made the active and inactive calls. No cut-off for these calls is given here.

Experiments:
[1] = biological target: Macrophage metalloelastase (Homo sapiens) (UniProt P39900); assay: Ratio of Ki for human MMP12 catalytic domain (Met105 to Lys263 residues) at pH 9.5 to Ki for human MMP12 catalytic domain (Met105 to Lys263 residues) at pH 6
Collagenase 3 = Collagenase 3 (Homo sapiens, UniProt P45452); assay: Inhibition of human MMP13 catalytic domain using Mca-Pro-Leu-Gly-Leu-Dpa-Ala-Arg-NH2 fluorogenic substrate by spectrophotometric analysis
[2] = biological target: 72 kDa type IV collagenase (Homo sapiens) (UniProt P08253); assay: Inhibition of human MMP2 catalytic domain using Mca-Pro-Leu-Gly-Leu-Dpa-Ala-Arg-NH2 fluorogenic substrate by spectrophotometric analysis
Stromelysin-2 = Stromelysin-2 (Homo sapiens, UniProt P09238); assay: Inhibition of human MMP10 catalytic domain using Mca-Pro-Leu-Gly-Leu-Dpa-Ala-Arg-NH2 fluorogenic substrate by spectrophotometric analysis
Chain of Stromelysin-2 (P09238 whole entry, the tested form may be a part): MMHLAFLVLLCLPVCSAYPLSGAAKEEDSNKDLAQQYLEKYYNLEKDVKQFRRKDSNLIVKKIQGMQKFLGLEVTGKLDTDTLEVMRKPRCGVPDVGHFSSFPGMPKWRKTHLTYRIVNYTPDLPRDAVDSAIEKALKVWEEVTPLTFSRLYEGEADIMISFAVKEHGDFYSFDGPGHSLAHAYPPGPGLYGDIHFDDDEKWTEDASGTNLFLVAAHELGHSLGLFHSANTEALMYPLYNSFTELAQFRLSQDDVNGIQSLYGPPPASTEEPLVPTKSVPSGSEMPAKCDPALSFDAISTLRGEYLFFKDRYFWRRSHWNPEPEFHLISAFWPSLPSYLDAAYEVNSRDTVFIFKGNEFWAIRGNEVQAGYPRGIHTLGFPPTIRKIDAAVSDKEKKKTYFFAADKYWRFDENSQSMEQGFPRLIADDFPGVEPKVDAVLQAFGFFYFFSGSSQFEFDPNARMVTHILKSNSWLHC

Chain of Macrophage metalloelastase (Homo sapiens) (P39900 106-470 limits assumed): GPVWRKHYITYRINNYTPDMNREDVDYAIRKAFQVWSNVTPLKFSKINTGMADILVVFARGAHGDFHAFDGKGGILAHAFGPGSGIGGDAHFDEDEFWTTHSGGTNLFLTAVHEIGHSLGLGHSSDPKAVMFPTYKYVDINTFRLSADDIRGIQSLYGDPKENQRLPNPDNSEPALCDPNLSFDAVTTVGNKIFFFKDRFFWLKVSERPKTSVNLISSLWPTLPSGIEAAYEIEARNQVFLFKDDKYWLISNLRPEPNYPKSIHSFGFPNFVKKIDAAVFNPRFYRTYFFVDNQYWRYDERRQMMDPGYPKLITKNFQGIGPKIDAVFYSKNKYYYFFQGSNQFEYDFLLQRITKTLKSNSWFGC
Chain of 72 kDa type IV collagenase (Homo sapiens) (P08253 110-660 limits assumed): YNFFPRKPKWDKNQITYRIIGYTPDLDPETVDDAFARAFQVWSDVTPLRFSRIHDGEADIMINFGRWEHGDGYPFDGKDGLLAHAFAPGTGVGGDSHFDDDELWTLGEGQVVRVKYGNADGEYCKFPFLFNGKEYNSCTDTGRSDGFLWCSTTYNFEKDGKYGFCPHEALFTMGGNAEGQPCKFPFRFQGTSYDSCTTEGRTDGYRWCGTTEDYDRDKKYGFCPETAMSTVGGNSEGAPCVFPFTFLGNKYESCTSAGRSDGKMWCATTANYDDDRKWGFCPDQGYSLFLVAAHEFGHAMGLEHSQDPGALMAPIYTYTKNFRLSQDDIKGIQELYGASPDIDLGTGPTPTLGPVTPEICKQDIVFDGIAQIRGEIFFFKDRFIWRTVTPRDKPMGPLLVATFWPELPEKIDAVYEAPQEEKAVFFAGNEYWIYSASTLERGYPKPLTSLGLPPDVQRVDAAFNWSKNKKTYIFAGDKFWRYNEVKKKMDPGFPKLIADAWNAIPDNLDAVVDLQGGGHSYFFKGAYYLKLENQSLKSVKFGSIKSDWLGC

Activity (Collagenase 3) | Activity [2] | Structure (SMILES) | Ratio Ki [1] | Ki (Collagenase 3) [nM] | Ki (Stromelysin-2) [nM]
Active | Active | NC(=O)[C@H](CCC(=O)O)NC(=O)[C@H](CCC(=O)O)NC(=O)[C@@H](CC(=O)O)Cc1cc(-c2ccc(-c3cccc(Cl)c3)cc2)no1 | 980 |  | 
 |  | NC(=O)[C@H](CCC(=O)O)NC(=O)[C@H](CCC(=O)O)NC(=O)[C@H](Cc1cc(-c2ccc(-c3cccc(Cl)c3)cc2)no1)CP(=O)(O)c1ccc(Br)cc1 | 1100 | 139 | 149
 |  | NC(=O)[C@H](CCC(=O)O)NC(=O)[C@H](CCC(=O)O)NC(=O)[C@@H](CC(=O)NO)Cc1cc(-c2ccc(-c3cccc(Cl)c3)cc2)no1 |  | 0.008 | 1.4
